From patent US20250177386A1, “METHOD OF TREATMENT OF DEPRESSED PATIENTS WITH POOR COGNITION AND SELECTION OF OTHER PATIENTS BENEFITING FROM A BENZYLPIPERAZINE-AMINOPYRIDINE AGENT” (Alto Neuroscience, Inc., priority 2021, published 2025)

Key:
[1] = system: patients having major depressive disorder; conditions: cited from earlier work
[2] = system: patients having major depressive disorder; experiment: Phase 2 clinical trial with NSI-189 (220 patients, SPCD design), retrospective analysis by baseline cognition; type: in vivo, human; conditions: for number needed to treat to achieve one more remission / odds ratio for drug response: 80 mg vs placebo; for odds ratio for drug response: remission at 6 weeks
Procedure: A subsequent Phase 2 study was then performed on 220 patients with major depression (11). In that study, patients were randomized to receive a total daily dose of 40 mg or 80 mg of NSI-189 or placebo in stage 1 of the clinical trial design. […] Treatment in either stage was given for six weeks. This design is termed a Sequential Parallel Clinical Design (SPCD), and is analyzed statistically by combining results in a pre-defined manner for outcomes differences between relevant groups (e.g., drug vs. placebo) in each of the stages individually. There are two depression outcome measures accepted by the United States Food and Drug Administration (FDA) for the evaluation of adults. See the June 2018 FDA draft guidance entitled “Major Depressive Disorder: Developing Drugs for Treatment.” These are the Montgomery-Asberg Depression Rating Scale (MADRS), which was the primary outcome in this study, as well as the Hamilton Depression Rating Scale (HDRS) which was a key secondary outcome measure. […] It was reported that any benefits of NSI-189 on depression and cognition are independent effects (27).
A retrospective analysis of the 220-patient phase 2 study of NSI-189 discussed above was performed. In the study, patients having major depressive disorder were randomized to receive a total daily dose of 40 mg or 80 mg of NSI-189 or placebo in stage 1 (first 6 weeks) of the clinical trial design. […] The remaining of patients continued on their treatment for stage 2 of the trial. Treatment in either stage was given for six weeks. Patients were eligible for study participation if they were between the ages of 18-60 years, with current major depressive disorder of at least 8 weeks duration according to the DSM-5, as diagnosed by the Structured Clinical Interview for the DSM-5 clinical trial version (SCID-5-CT) during the screen and remote assessment visits, and if they were scored at least 20 at screen, remote assessment, and baseline visits on the Montgomery-Asberg Depression Rating Scale (MADRS). The phase 2 study collected cognitive task performance data prior to treatment, and then again after both stage 1 and stage 2 of the treatment protocol. The purpose of doing so was to determine whether treatment with this compound results in improvement in cognitive functioning, as measured by a variety of behavioral measures.
Prior to the inventor's retrospective analysis, there was no consideration as to using behavioral measures to predict treatment outcome nor was there any analysis conducted to this effect. There was no consideration of using cognitive performance as a predictor but only as an outcome measure. […] The tasks in this battery included a simple reaction time (RT) task, a choice RT task, a one-back working memory task, and a visual learning task. Moreover, given the conversion to z-score, a composite cognitive task performance score could be computed by averaging the z-scores for each of the four tasks in the battery. Analyses focused on the MADRS primary outcome of the study, with supporting evidence subsequently produced by examining the HDRS key secondary outcome, as well as the CGI. Statistical analyses focused first on the complete trial (incorporating both stage 1 and stage 2 outcomes), using the SPCD analytic approach reported in the original study and thus aligned could be compared with the original statistical analysis plan. We used linear mixed models to predict change from baseline (at 2, 4, and 6 weeks) in clinical scores and included covariates for time, time x group, time x baseline MADRS and baseline MADRS. These covariates likewise were used in the original study, and thus results here can be compared with the all-comer results reported previously. Statistical significance was thus assessed on the primary outcome (MADRS change from baseline at 6 weeks across the SPCD design) and similar secondary outcomes (HDRS and CGI change from baseline at 6 weeks). […]

[3] = system: patients with major depression; conditions: total daily doses of 40 mg, 80 mg or 120 mg; 18 patients on active dose (ref. 10); cited from earlier work

## CC(C)CCNc1ncccc1C(=O)N1CCN(Cc2ccccc2)CC1 [NSI-189, (4-benzylpiperazin-1-yl)-[2-(3-methylbutylamino)pyridin-3-yl]methanone]
[1]; 40 mg dose, all-comers, not corrected for multiple comparisons
  effects on several secondary measures compared to placebo: nominally significant effects
[1]; 80 mg daily dose, entire study population (ref. 11)
  efficacy on any study measure: did not demonstrate efficacy
[1]; original all-comer analysis, 40 mg or 80 mg/day, full SPCD analysis or each stage alone (ref. 11)
  antidepressant efficacy on MADRS primary outcome and HDRS key secondary measure: failed to demonstrate any evidence of antidepressant efficacy
[2]; 40 mg or 80 mg/day, good cognition group (composite score above patient mean), p=0.25
  change in MADRS scores, either drug arm versus placebo: no significant differences
[2]; 40 mg/day, poor cognition group (cognitive composite score), p=0.39
  change in MADRS scores, 40 mg group versus placebo: not significant
[2]; 80 mg arm from stage 1, composite score, 12 weeks of treatment
  durability of MADRS benefit, poor cognition compared to good cognition patients: stable and consistent throughout all 12 weeks of treatment
[2]; all-comer sample, 6 weeks, stage 1
  number needed to treat to achieve one more remission: 19.6
[2]; all-comer sample, stage 1
  odds ratio for drug response: 1.3
[2]; poor cognition subpopulation, 6 weeks, stage 1
  number needed to treat to achieve one more remission: 3.2
[2]; poor cognition subpopulation, stage 1
  odds ratio for drug response: 4.7
[2]; 80 mg/day, choice RT task, lenient cutoff z=+0.5, p=0.12
  change in MADRS scores, 80 mg versus placebo: did not yield a significant effect
[2]; 80 mg/day, cognitively impaired patients, six weeks, both stages, items 1, 7, 8, 9
  Cohen's d effect size per MADRS item, 80 mg versus placebo: notable effects
[2]; 80 mg/day, good cognition patients, 6 weeks, stage 1, chi-square p=0.014 vs poor cognition
  remission rate (score of 10 or less on the MADRS): 12%
[2]; 80 mg/day, late-life depression (LLD) group, 50 years or older
  MADRS depression score improvement, 80 mg over placebo: greater with 80 mg over placebo
[2]; 80 mg/day, non-LLD group, younger than 50
  MADRS depression score improvement, 80 mg versus placebo: indistinguishable between the two arms
[2]; 80 mg/day, poor cognition based on choice RT task, p=0.008
  symptom change on the HDRS, 80 mg relative to placebo: robust and significant effect
[2]; 80 mg/day, poor cognition defined by choice RT task, SPCD p=0.005
  change in MADRS scores, 80 mg versus placebo: robust and significant improvement over placebo
[2]; 80 mg/day, poor cognition defined by choice RT, p=0.0002
  Clinical Global Impression (CGI) severity, 80 mg over placebo: robust and significant advantage
[2]; 80 mg/day, poor cognition defined by one-back working memory, SPCD p=0.08
  change in MADRS scores, 80 mg versus placebo: trend-level significance
[2]; 80 mg/day, poor cognition defined by simple RT task, SPCD p=0.09
  change in MADRS scores, 80 mg versus placebo: trend-level significance
[2]; 80 mg/day, poor cognition group (cognitive composite score below patient mean), SPCD analysis p=0.014, 6 weeks
  change in MADRS scores, 80 mg arm versus placebo: robust and statistically significant effect
[2]; 80 mg/day, poor cognition on choice RT task, cutoff z=0, p=0.007
  change in MADRS scores, 80 mg versus placebo: significant superiority over placebo
[2]; 80 mg/day, poor cognition on choice RT task, cutoff z=-0.5, p=0.009
  change in MADRS scores, 80 mg versus placebo: significant superiority over placebo
[2]; 80 mg/day, poor cognition patients (composite score), 6 weeks, stage 1, chi-square p=0.017 vs placebo
  remission rate (score of 10 or less on the MADRS): 47%
[2]; 80 mg/day, poor cognition patients (composite score), p=0.002
  Clinical Global Impression (CGI) severity, 80 mg versus placebo: significantly more effective than placebo
[2]; 80 mg/day, poor cognition patients (composite score), p=0.038
  symptom change on the HDRS, 80 mg over placebo: significantly greater efficacy
[2]; good cognition group, 6 weeks, stage 1
  benefit in terms of remission rate: No benefit
[2]; patients with poor self-reported cognition (CPFQ score >25)
  MADRS depression score, difference between treatment arms: no difference is seen between treatment arms
[2]; week 6, stage 1 and stage 2, poor cognition subpopulation relative to all-comer sample
  Cohen's d effect sizes (MADRS, HDRS, CGI), 80 mg versus placebo: effect sizes increase substantially
[3]
  potential antidepressant efficacy: promising evidence
